In test [1] the test system is P815. Nature of the test: Cytotoxicity against mouse P815 cells after 3 days. As to conditions: P815, 72 h. The class given is cell-based.
Test [2] is described as follows: Induction of pBR322 DNA alkylation at 0.1 uM by thermally induced cleavage assay. It is filed as functional.
The nature of test [3]: Induction of linear pBR322 DNA interstrand crosslinking. The class given is functional.
A short description of test [4]: Induction of supercoiled pBR322 DNA strand cleavage. It is filed as functional.
Test [5] in a line: Induction of pBR322 DNA alkylation at 100 uM by thermally induced cleavage assay. The class given is functional.
The test system of test [6] is P815. Nature of the test: Cell cycle arrest in mouse P815 cells by accumulation at subG0 phase at 0.026 uM. The class given is functional.
Test [7] in a line: Induction of supercoiled pBR322 DNA strand cleavage at 6.6 uM. The class given is functional.
Test [8] can be described thus: Induction of linear pBR322 DNA interstrand crosslinking at 10 uM. The class given is functional.
Test [9] is described as follows: Induction of pBR322 DNA alkylation at 1 uM by thermally induced cleavage assay. The class given is functional.
Test [10] is described as follows: Induction of pBR322 DNA alkylation at 10 uM by thermally induced cleavage assay. It is filed as functional.

Drawing on ChEMBL document CHEMBL1139677, “DNA interstrand crosslinking agents: synthesis, DNA interactions, and cytotoxicity of dimeric achiral seco-amino-CBI and conjugates of achiral seco-amino-CBI with pyrrolobenzodiazepine (PBD)” (Bioorg Med Chem Lett, 2006), this text covers IC50 and Activity for eight molecules.

Active and inactive are the calls of the source. No cut-off for these calls is given here.

In the case of `COc1cc2cc(C(=O)Nc3cc(N)c4ccccc4c3CCCl)[nH]c2c(OC)c1OC` [CENTANAMYCIN], inhibition with P815 [1] was half-maximal at 0.068 µM (IC50).

On to `COc1cc2c(cc1OCCC(=O)Nc1ccc3oc(C(=O)Nc4cc(O)ccc4CCCl)cc3c1)N=C[C@@H]1CCCN1C2=O`, for which the IC50 (as a rule, the concentration at which inhibition is half-maximal) in the test with P815 [1] was 0.56 µM.

On to `COc1c(O)c2c(c3cc(C(=O)N4CCc5c4c(O)c(OC)c4[nH]c(C(=O)N6C[C@H]7C[C@@]78C6=CC(=O)c6[nH]cc(C)c68)cc54)[nH]c13)CCN2C(N)=O`, for which the outcome in [2] was Active.

For `C=C1C[C@H]2C=Nc3cc(OCCCOc4cc5c(cc4OC)C(=O)N4CC(=C)C[C@H]4C=N5)c(OC)cc3C(=O)N2C1`, in test [3], the outcome was Active.

`Nc1cc(NC(=O)c2cc3cc(NC(=O)Nc4ccc5oc(C(=O)Nc6cc(N)c7ccccc7c6CCCl)cc5c4)ccc3o2)c(CCCl)c2ccccc12` came in with an IC50 with P815 [1] of 42 µM.

Turning to `COc1cc2cc(C(=O)N3CC(CCl)c4c3cc(O)c3ccccc43)[nH]c2c(OC)c1OC` (stereo not given), in the test with P815 [1], the IC50 turned out to be 0.0086 µM.

With `COC(=O)CCOc1cc2c(cc1OC)C(=O)N1CCC[C@H]1C=N2`, in the test with P815 [1], the IC50 is 55 µM. This molecule also had an Activity in [4] of 4%. Besides, the result in [5] was inactive.

In the test with P815 [1], `COc1cc2c(cc1OCCC(=O)Nc1ccc3oc(C(=O)Nc4cc(N)c5ccccc5c4CCCl)cc3c1)N=C[C@@H]1CCCN1C2=O` came in with an IC50 of 0.026 µM. In addition, the Activity in the test on P815 [6] was 21%; in test [7] it was 16%. Besides, the outcome in test [8], in test [9] and in test [10] was Active.
